From patent publication USRE44962E1, “Genetically engineered plant cells and plants exhibiting resistance to glutamine synthetase inhibitors, DNA fragments and recombinants for use in the production of said cells and plants” (Bayer Cropscience N.V., priority 1986, dated 2014)

Assays:
PPT acetyl transferase = PPT acetyl transferase (Streptomyces hygroscopicus, UniProt P16426); type: biochemical, S. hygroscopicus ATCC 21 705; conditions: S. hygroscopicus derivates; S. lividans carrying pBG20 or pBG16
Sequence of PPT acetyl transferase (P16426 whole entry): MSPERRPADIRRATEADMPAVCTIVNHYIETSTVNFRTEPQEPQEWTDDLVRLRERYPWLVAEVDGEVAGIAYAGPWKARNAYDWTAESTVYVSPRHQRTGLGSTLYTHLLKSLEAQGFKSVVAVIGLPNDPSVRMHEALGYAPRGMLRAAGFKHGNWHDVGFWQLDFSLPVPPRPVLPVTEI

E. coli W3110 = assay: Growth of E. coli W3110 on M9 medium containing Bialaphos; type: cell-based; conditions: for resistance of pBG93/W3110 to Bialaphos: M9 medium
S. lividans = type: cell-based
Phytophtora infestans = type: in vivo; conditions: sfr potato plants sprayed at 8 l/ha once symptoms visible, read two weeks later
[1] = tested on: glutamine synthetase (GS); conditions: cited from earlier work

Row | Structure (SMILES) | acetylation by the PPT acetyl transferase activity (PPT acetyl transferase) | growth of W3110 host devoid of pBG93 (E. coli W3110; M9 medium containing 5 μg/ml Bialaphos) | resistance of pBG93/W3110 to Bialaphos (E. coli W3110; in the presence of IPTG (0.5 mM)) | resistance of pBG93/W3110 to Bialaphos (E. coli W3110; without IPTG) | growth of transformants containing pBG20 (S. lividans; S. lividans with pBG20, medium containing 500 μg/ml Bialaphos) | Bialaphos concentration at which S. lividans growth is normally inhibited (S. lividans; untransformed S. lividans, minimal medium) | growth of the fungus on treated plants (Phytophtora infestans) | inhibition of glutamine synthetase (GS) [1]
1 | CC(NC(=O)C(C)NC(=O)C(N)CCP(C)(=O)O)C(=O)O (stereo not shown) [Bialaphos] | does not acetylate | did not grow | 50 μg/ml | 5 μg/ml | not noticeably inhibited | 1 µg/mL | stopped | –
2 | CC(=O)NC(CCP(C)(=O)O)C(=O)O (stereo not shown) [N-acetyl PPT] | – | – | – | – | – | – | – | not an inhibitor
3 | CP(=O)(O)CCC(N)C(=O)O (stereo not shown) [PPT, phosphinothricin] | could acetylate | – | – | – | – | – | – | inhibits
